Data on six molecules can be found in publication PMC8876231, “Analogues of Natural Chalcones as Efficient Inhibitors of AKR1C3” (Metabolites, 2022).

Several values for one entry are separate records, joined by “and”; a condition that tells them apart may be missing. Equal values may be shown once.

Holding throughout (format): biochemical
What all share (conditions): 10 µM compound; mean ± SD

For one test, the target named is T1, AKR1C4 (Homo sapiens, UniProt P17516).
T1 construct: Myc (N); expressed in transfected cells; host or cells: HEK293
T1 sequence (P17516 1-323): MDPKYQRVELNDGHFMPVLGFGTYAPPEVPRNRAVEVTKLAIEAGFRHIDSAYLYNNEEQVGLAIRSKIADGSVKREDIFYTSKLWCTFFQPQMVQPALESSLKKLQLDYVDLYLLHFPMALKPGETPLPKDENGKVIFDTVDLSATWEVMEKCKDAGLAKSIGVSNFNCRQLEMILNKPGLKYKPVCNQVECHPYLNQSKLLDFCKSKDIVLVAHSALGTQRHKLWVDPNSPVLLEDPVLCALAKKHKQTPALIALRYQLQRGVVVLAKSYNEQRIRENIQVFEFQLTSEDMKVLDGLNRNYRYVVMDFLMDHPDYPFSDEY
Put plainly: AKR1C4 inhibition assay (DHT to 3α-androstanediol). An excerpt: (§1) For enzymatic assays and inhibitor testing, all enzymes were cloned into bacterial or mammalian expression vectors. AKR1C3 and the human hydroxysteroid dehydrogenases HSD17B1, HSD17B2, HSD17B4 (SDR domain), HSD17B7, and HSD17B10 were cloned into a pGEX vector as described in [71, 72]. The coding sequences for AKR1C1, AKR1C2, and AKR1C4 were cloned by Gateway technology into the pcDNA3-N-MycDest vector according to the manufacturer’s instructions (Life Technologies, Carlsbad, CA, USA). The p11 plasmid coding for HSD17B14 (S205 variant) was a gift from Udo Opperman SGC Oxford, UK. For assays with HSD17B3, HEK293 cells stably expressing HSD17B3 were used. Enzymes were expressed in E. coli BL21 DE3 or E. coli BL21 DE3 Codon Plus RP (Stratagene, San Diego, CA, USA) or in HEK293 cells as described in [71, 72, 73]. Bacterial and cell pellets were stored at −20 °C and −80 °C, respectively, until use.
(§2) Inhibition assays were carried out as described in [71, 74]. […] For a detailed assay setup, see Supplementary Table S6. The incubation at 37 °C was stopped with 0.21 M ascorbic acid in methanol:acetic acid 99:1 (v:v) after the time needed to convert approximately 30% of the substrate in a control assay with 1% DMSO, without inhibitor candidate. Substrates and products were extracted from the reaction mixture by solid-phase extraction using C18 cartridges (Phenomenex, Aschaffenburg, Germany) and separated by RP–HPLC in a Beckman–Coulter HPLC Gold system, using the Luna 5 µm C18(2), 125 × 4.0 mm column (Phenomenex). The mobile phases used were H2O:ACN (57:43 (v:v); for assays of estrone (E1) to oestradiol (E2), E2 to E1, and ∆4-androstene-3,17-dione to testosterone conversion), H2O:ACN (49:51 (v:v); for assays of progesterone to 20α-hydroxyprogesterone conversion), and H2O:MeOH (35:65 (v:v) for assays of dihydrotestosterone (DHT) to 3α-androstanediol conversion) at a flow rate of 1 mL/min. Radioactivity was detected by online scintillation counting by using a radioactivity monitor (LB506D, Berthold Technologies, Bad Wildbad, Germany). Conversion of substrates to products was determined by integration of the peak area of the substrate and product peaks in percent. For calculation of inhibition, the conversion of control assay (assay without inhibitor) was set to 0% inhibition. All assays were run in triplicates, and mean values ± SD are reported.
(§3) Table S6: Activity assay setup […]
(§4) E1: estrone; E2: 17β-estradiol, A: Δ4-androstene-3,17-dione; T: testosterone, P: progesterone, 20αOHP: 20α-hydroxyprogesterone, DHT: dihydrotestosterone, 3α-Adiol: 3α-androstanediol, NaPi: 100 mM Na-phosphate buffer; PI: C0mplete protease inhibitor (Roche);. E.coli - Expression in E.coli BL21 DE3 Codon Plus RP except E.coli BL21 DE3 […]
(§5) application to antiparasitic and natural product synthesis. Eur J Org Chem […]
(§6) Synthesis of Xanthohumol analogues and discovery of potent thioredoxin reductase inhibitor as potential anticancer agent. J Med Chem 2015, 58,

For a further test, the target named is T2, HSD17B1 (Homo sapiens, UniProt P14061).
T2 construct: GST (own knowledge: pGEX vectors encode N-terminal GST); made in house; host or cells: E. coli BL21 DE3 Codon Plus RP
T2 sequence (P14061 1-328): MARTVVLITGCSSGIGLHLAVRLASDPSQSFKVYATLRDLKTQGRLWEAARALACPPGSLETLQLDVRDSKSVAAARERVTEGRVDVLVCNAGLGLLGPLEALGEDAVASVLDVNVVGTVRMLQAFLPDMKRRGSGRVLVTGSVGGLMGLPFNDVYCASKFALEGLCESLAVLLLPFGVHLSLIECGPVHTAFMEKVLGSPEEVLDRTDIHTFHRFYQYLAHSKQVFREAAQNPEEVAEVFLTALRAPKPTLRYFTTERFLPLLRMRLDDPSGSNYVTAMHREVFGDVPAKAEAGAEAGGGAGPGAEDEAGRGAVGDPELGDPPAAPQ
Put plainly: HSD17B1 inhibition assay (estrone to oestradiol).
From the text: as §1, §2, §3, §4, §5, §6

The next test concerns the target T3, HSD17B4 (Homo sapiens, UniProt P51659).
T3 construct: pGEX-HSD17B4 (SDR domain) in; GST (own knowledge: pGEX vectors encode N-terminal GST); made in house; host or cells: E. coli BL21 DE3 Codon Plus RP
T3 sequence (P51659 1-305 limits assumed): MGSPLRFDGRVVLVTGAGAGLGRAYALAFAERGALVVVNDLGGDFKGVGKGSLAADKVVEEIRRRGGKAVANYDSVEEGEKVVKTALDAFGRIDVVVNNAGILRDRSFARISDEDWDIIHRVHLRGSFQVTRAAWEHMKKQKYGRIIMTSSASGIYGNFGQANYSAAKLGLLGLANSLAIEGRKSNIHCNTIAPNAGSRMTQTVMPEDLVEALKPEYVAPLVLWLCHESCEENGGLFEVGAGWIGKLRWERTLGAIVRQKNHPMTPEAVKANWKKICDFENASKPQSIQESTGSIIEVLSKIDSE
In words: HSD17B4 (SDR domain) inhibition assay (oestradiol to estrone).
From the text: as §1, §2, §3
pGEX-HSD17B4 (SDR domain) in E2 à E1 estradiol-[6,7-3H], 40 NAD 750 µM NaPi pH7.7 […]
as §4, §5, §6

In general, inhibition refers to the change of the read-out against control, counted positive when it falls. Read a high inhibition as a response far below the control.

As for `COc1ccc(/C=C/C(=O)c2c(O)cc(O)cc2OC)cc1` [Compound 18], the “Inhibition of AKR1C4 at 10 µM in %” value at AKR1C4 was 25.0 ± 1.5%. Moreover, the “Inhibition of HSD17B1 at 10 µM in %” value at HSD17B1 was found to be 46.5 ± 8.8%. Moreover, the “Inhibition of HSD17B4 at 10 µM in %” value on HSD17B4 stood at 9.9 ± 6.1%.
Regarding `COc1ccc(/C=C/C(=O)c2c(O)cc(O)cc2O)cc1` [Compound 19], the “Inhibition of AKR1C4 at 10 µM in %” value on AKR1C4 is 93.3 ± 0.7% and > 75%. For the same molecule, the “Inhibition of HSD17B1 at 10 µM in %” value at HSD17B1 amounted to 42.3 ± 5.3%. Further, the “Inhibition of HSD17B4 at 10 µM in %” value at HSD17B4 is reported as 2.0 ± 2.9%.
Consider `Cc1cccc(/C=C/C(=O)c2c(O)cc(O)cc2O)c1` [Compound 20], for which, on AKR1C4, the “Inhibition of AKR1C4 at 10 µM in %” value is 79.6 ± 0.2% and > 75%. Besides, the “Inhibition of HSD17B1 at 10 µM in %” value on HSD17B1 was 51.8 ± 5.1%. Besides, the “Inhibition of HSD17B4 at 10 µM in %” value on HSD17B4 turned out to be 8.6 ± 1.1%.
Take `Cc1ccc(/C=C/C(=O)c2c(O)cc(O)cc2O)cc1` [Compound 21]: the “Inhibition of AKR1C4 at 10 µM in %” value on AKR1C4 is 91.6 ± 1.5% and > 75%. Further, on HSD17B1, the “Inhibition of HSD17B1 at 10 µM in %” value amounted to 42.8 ± 9.1%. For the same molecule, the “Inhibition of HSD17B4 at 10 µM in %” value on HSD17B4 is listed as 3.0 ± 6.3%.
As to `O=C(/C=C/c1ccc(Cl)cc1Cl)c1c(O)cc(O)cc1O` [Compound 23, 2,4-dichloro-2′,4′,6′-trihydroxychalcone], the inhibition at 10 µM on AKR1C4 was found to be 97 ± 0.9%; at HSD17B1, 53.3%; on HSD17B4, 19.6 ± 1%.
Turning to `COc1cc(O)cc(O)c1C(=O)/C=C/c1ccc(Cl)cc1Cl` [Compound 25], the “Inhibition of AKR1C4 at 10 µM in %” value at AKR1C4 came out at 41.6 ± 1.8%. For the same molecule, the “Inhibition of HSD17B4 at 10 µM in %” value on HSD17B4 was -6.0 ± 7.5%.
